Literature values in patent US12648920B2, “Methods of administering glutathione precursors” (Neuronasal, Inc., priority 2020, dated 2026).

Conditions: oral

For `CC(=O)N[C@@H](CS)C(=O)O` [NAC, N-acetylcysteine], the orally bioavailable is listed as less than 10%.
